Assay results published in ChEMBL document CHEMBL1137881, “Synthesis of acyloxymethyl ester prodrugs of the transferable protein farnesyl transferase substrate farnesyl methylenediphosphonate” (Bioorg Med Chem Lett, 2004).

Experiments:
Assay type in all cases: protein-complex assay
[1] = system: CC(C)=CCC/C(C)=C/CC/C(C)=C/COP(=O)(O)CP(=O)(O)O; test: (§1) Michaelis-Menten constant against Farnesyltransferase
[2] = system: CC(C)=CCC/C(C)=C/CC/C(C)=C/COP(=O)(O)OP(=O)(O)O; test: as §1
[3] = target: T1, Protein farnesyltransferase (Homo sapiens) (UniProt P49354+P49356); test: Catalytic constant against Farnesyltransferase
[4] = target: T1, Protein farnesyltransferase (Homo sapiens); test: Ratio of Kcat to Km for farnesyltransferase

| K cat [3] [s⁻¹] | Ratio [4] [M⁻¹ s⁻¹] | Molecule | Km [1] [µM] | Km [2] [µM] |
| --- | --- | --- | --- | --- |
| – | – | Protein farnesyltransferase (Homo sapiens) (from UniProt P49354+P49356) | 0.18 | 0.04 |
| 0.09 | 2e+06 | CC(C)=CCC/C(C)=C/CC/C(C)=C/COP(=O)(O)OP(=O)(O)O | – | – |
| 0.06 | 300000 | CC(C)=CCC/C(C)=C/CC/C(C)=C/COP(=O)(O)CP(=O)(O)O | – | – |
